# Tests used:
# hα2A receptor = target: T1, hα2A receptor (Homo sapiens, UniProt P08913); experiment: Radioligand binding experiment for α2A-adrenoceptor ([3H]raulwolscine, CHO cell membranes); conditions: [3H]raulwolscine binding; for IC50: read-out: h-α2A pIC50 (converted)
# T1 construct: expressed in transfected cells; host or cells: CHO cells, stably transfected; membrane preparation
# T1 sequence (P08913 1-465): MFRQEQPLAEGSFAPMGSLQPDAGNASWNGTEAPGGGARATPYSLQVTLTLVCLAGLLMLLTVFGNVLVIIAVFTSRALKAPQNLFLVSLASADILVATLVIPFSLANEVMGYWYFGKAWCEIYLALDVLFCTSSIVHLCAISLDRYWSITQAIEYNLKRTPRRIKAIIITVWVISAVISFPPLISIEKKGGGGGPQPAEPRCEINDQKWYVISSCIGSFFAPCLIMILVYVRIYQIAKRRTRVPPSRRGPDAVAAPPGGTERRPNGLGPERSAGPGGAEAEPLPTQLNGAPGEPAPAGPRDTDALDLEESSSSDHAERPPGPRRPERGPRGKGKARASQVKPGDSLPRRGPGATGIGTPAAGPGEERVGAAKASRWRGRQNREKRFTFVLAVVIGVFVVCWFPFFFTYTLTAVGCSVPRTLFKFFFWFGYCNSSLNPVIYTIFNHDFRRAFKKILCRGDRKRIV
# Method: (§1) The interaction of a compound of Formula (I) with α2-adrenoceptor receptors was assessed in in vitro radioligand binding experiments. In general, a low concentration of a radioligand with a high binding affinity for a particular receptor or transporter is incubated with a sample of a tissue preparation enriched in a particular receptor or transporter or with a preparation of cells expressing cloned human receptors in a buffered medium. During the incubation, the radioligand binds to the receptor or transporter. When equilibrium of binding is reached, the receptor bound radioactivity is separated from the non-bound radioactivity, and the receptor- or transporter-bound activity is counted. The interaction of the test compounds with the receptor is assessed in competition binding experiments. Various concentrations of the test compound are added to the incubation mixture containing the receptor- or transporter preparation and the radioligand. The test compound in proportion to its binding affinity and its concentration inhibits binding of the radioligand. The radioligand used for hα2A and hα2C receptor binding was [^3H]-raulwolscine.
# (§2) CHO cells, stabile transfected with human adrenergic-α2A and α2C receptor cDNA, were cultured in Dulbecco's Modified Eagle's Medium (DMEM)/Nutrient mixture Ham's F12 (ratio 1:1)(Gibco, Gent-Belgium) supplemented with 10% heat inactivated fetal calf serum (Life Technologies, Merelbeke-Belgium) and antibiotics (100 IU/ml penicillin G, 100 μg/ml streptomycin sulphate, 110 μg/ml pyruvic acid and 100 μg/ml L-glutamine). One day before collection, cells were induced with 5 mM sodiumbutyrate. Upon 80-90% of confluence, cells were scraped in phosphate buffered saline without Ca^2+ and Mg^2+ and collected by centrifugation at 1500×g for 10 minutes. The cells were homogenised in Tris-HCl 50 mM using an Ultraturrax homogenizer and centrifuged for 10 minutes at 23,500×g. The pellet was washed once by resuspension and rehomogenization and the final pellet was resuspended in Tris-HCl, divided in 1 ml aliquots and stored at −70° C.
# (§3) Membranes were thawed and re-homogenized in incubation buffer (glycylglycine 25 mM, pH 8.0). […] Filters were rinsed extensively with ice-cold rinsing buffer (Tris-HCl 50 mM pH 7.4). Filter-bound radioactivity was determined by scintillation counting in a Topcount (Packard, Meriden, Conn.) and results were expressed as counts per minute (cpm). Non-specific binding was determined in the presence of 1 μM oxymetazoline for the hα2A receptor and 1 μM spiroxatrine for hα2C receptor.
# (§4) Data from assays in the presence of compound were calculated as a percentage of total binding measured in the absence of test compound. Inhibition curves, plotting percent of total binding versus the log value of the concentration of the test compound, were automatically generated, and sigmoidal inhibition curves were fitted using non-linear regression. The pIC50 values of test compounds were derived from individual curves.
# 5HT-Transporter = target: T2, 5HT-Transporter (Homo sapiens, UniProt P31645); experiment: Binding experiment for the 5HT-transporter ([3H]paroxetine, human platelet membranes); conditions: [3H]paroxetine 0.5 nM; for IC50: read-out: h-5HTT pIC50 (converted)
# T2 construct: Human platelet membranes (Oceanix Biosciences Corporation, Hanover, Md., USA) were thawed; tissue Oceanix Biosciences Corporation, Hanover, Md., USA; host or cells: human platelet membranes
# Method: as §1
# Human platelet membranes (Oceanix Biosciences Corporation, Hanover, Md., USA) were thawed, diluted in buffer (Tris-HCl 50 mM, 120 mM NaCl and 5 mM KCl) and quickly (max 3 s) homogenised with an Ultraturrax homogenizer. […] Incubation was stopped by rapid filtration of the incubation mixture over GF/B filters, pre-wetted with 0.1% polyethyleneamine, using a Filtermate196 harvester (Packard, Meriden, Conn.). Filters were rinsed extensively with ice-cold buffer and radioactivity on the filters was counted in a Topcount liquid scintillation counter (Packard, Meriden, Conn.). Data were expressed as cpm. Imipramine (at 1 μM final concentration) was used to determine the non-specific binding.
# as §4
# hα2C receptor = target: T3, hα2C receptor (Homo sapiens, UniProt P18825); experiment: Radioligand binding experiment for α2C-adrenoceptor ([3H]raulwolscine, CHO cell membranes); conditions: [3H]raulwolscine binding; for IC50: read-out: h-α2C pIC50 (converted)
# T3 construct: expressed in transfected cells; host or cells: CHO cells, stably transfected; membrane preparation
# T3 sequence (P18825 1-462): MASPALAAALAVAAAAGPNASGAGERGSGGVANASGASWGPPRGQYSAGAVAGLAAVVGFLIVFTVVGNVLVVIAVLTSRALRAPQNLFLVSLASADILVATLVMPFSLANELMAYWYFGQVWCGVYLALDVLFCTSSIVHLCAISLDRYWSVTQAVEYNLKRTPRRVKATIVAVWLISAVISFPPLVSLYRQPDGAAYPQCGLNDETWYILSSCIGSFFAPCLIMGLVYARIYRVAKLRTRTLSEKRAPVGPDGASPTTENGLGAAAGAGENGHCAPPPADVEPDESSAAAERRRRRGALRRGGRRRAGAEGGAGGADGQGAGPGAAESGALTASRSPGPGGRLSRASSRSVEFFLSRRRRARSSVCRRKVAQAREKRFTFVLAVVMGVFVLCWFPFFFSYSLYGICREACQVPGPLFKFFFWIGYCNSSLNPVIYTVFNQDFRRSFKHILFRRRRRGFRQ
# Method: as §1, §2, §3, §4
# T2 sequence (P31645 whole entry): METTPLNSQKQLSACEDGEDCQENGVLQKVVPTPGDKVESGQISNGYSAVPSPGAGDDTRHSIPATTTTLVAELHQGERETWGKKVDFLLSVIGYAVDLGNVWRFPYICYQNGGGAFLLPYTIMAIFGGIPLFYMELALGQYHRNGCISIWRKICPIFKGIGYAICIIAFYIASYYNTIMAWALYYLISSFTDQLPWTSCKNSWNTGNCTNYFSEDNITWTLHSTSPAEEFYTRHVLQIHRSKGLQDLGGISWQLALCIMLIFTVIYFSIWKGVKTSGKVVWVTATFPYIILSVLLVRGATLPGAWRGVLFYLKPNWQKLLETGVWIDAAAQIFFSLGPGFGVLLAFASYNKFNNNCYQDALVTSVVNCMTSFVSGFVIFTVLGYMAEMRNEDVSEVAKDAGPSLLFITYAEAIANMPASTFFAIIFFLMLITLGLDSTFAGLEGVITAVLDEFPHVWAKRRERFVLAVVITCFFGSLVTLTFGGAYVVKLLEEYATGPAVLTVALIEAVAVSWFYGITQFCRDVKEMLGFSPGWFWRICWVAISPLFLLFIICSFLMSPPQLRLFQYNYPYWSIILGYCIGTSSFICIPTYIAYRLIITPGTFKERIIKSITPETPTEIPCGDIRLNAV
IC50 (hα2A receptor) [nM],IC50 (5HT-Transporter) [nM],IC50 (hα2C receptor) [nM],h-α2A pIC50 (hα2A receptor),h-5HTT pIC50 (5HT-Transporter),h-α2C pIC50 (hα2C receptor),Compound
63.1,2000,6.31,,,,C/C(=C\c1ccccc1)CN1CCC(Nc2nccn(CCCN)c2=O)CC1 [1-1]
39.8,,,,,,C/C(=C\c1ccccc1)CN1CCC(Nc2nccn(CCCN)c2=O)CC1 [1-2]
200,> 10000,31.6,,,,C/C(=C\c1ccccc1)CN1CCC(Nc2nccn(CCC(N)=O)c2=O)CC1 [1-3]
31.6,3160,5.01,,,,C/C(=C\c1ccccc1)CN1CCC(Nc2nccn(-c3cccc(N)c3)c2=O)CC1 [1-4]
100,2000,6.31,,,,C/C(=C\c1ccccc1)CN1CCC(Nc2nccn(-c3ccc(N)cc3)c2=O)CC1 [1-5]
15.8,794,3.16,,,,C/C(=C\c1ccccc1)CN1CCC(Nc2nccn(Cc3ccc(CN)cc3)c2=O)CC1 [1-7]
50.1,3980,3.16,,,,CNCCCn1ccnc(NC2CCN(C/C(C)=C/c3ccccc3)CC2)c1=O [1-8]
31.6,1580,3.98,,,,CNCc1ccc(Cn2ccnc(NC3CCN(C/C(C)=C/c4ccccc4)CC3)c2=O)cc1 [1-9]
126,2000,10,,,,CCCNC(=O)Cn1ccnc(NC2CCN(C/C(C)=C/c3ccccc3)CC2)c1=O [1-10]
3.16,631,1,,,,CCCNCc1cccc(-n2ccnc(NC3CCN(C/C(C)=C/c4ccccc4)CC3)c2=O)c1 [1-11]
,,,8.4,6.1,9.0,CCCNCc1cccc(-n2ccnc(NC3CCN(C/C(C)=C/c4ccccc4)CC3)c2=O)c1 [1-12]
79.4,398,7.94,,,,CCCNC(=O)c1ccc(-n2ccnc(NC3CCN(C/C(C)=C/c4ccccc4)CC3)c2=O)cc1 [1-13]
50.1,7940,3.98,,,,C/C(=C\c1ccccc1)CN1CCC(Nc2nccn(CCCN(C)C)c2=O)CC1 [1-15]
5.01,1000,1.58,,,,CCN(CC)c1cccc(-n2ccnc(NC3CCN(C/C(C)=C/c4ccccc4)CC3)c2=O)c1 [1-17]
39.8,1000,12.6,,,,CCN(CC)c1ccc(C(=O)Cn2ccnc(NC3CCN(C/C(C)=C/c4ccccc4)CC3)c2=O)cc1 [1-18]
126,1580,10,,,,CCCN(C)C(=O)Cn1ccnc(NC2CCN(C/C(C)=C/c3ccccc3)CC2)c1=O [1-19]
79.4,1000,3.98,,,,C/C(=C\c1ccccc1)CN1CCC(Nc2nccn(CC(=O)N(C)C3CCCCC3)c2=O)CC1 [1-20]
316,2510,20,,,,C/C(=C\c1ccccc1)CN1CCC(Nc2nccn(CC(=O)N(C)CCO)c2=O)CC1 [1-21]
100,631,12.6,,,,COCCNC(=O)c1ccc(-n2ccnc(NC3CCN(C/C(C)=C/c4ccccc4)CC3)c2=O)cc1 [1-22]
200,2510,6.31,,,,COCCCNC(=O)Cn1ccnc(NC2CCN(C/C(C)=C/c3ccccc3)CC2)c1=O [1-23]

IC50 (hα2A receptor) [nM],IC50 (5HT-Transporter) [nM],IC50 (hα2C receptor) [nM],h-α2A pIC50 (hα2A receptor),h-5HTT pIC50 (5HT-Transporter),h-α2C pIC50 (hα2C receptor),Compound
126,3160,7.94,,,,COCCN(C)C(=O)Cn1ccnc(NC2CCN(C/C(C)=C/c3ccccc3)CC2)c1=O [1-24]
5.01,1580,1,,,,COCCN(C)Cc1cccc(-n2ccnc(NC3CCN(C/C(C)=C/c4ccccc4)CC3)c2=O)c1 [1-25]
,,,7.2,5.8,8.7,COCCN(C)Cc1ccc(-n2ccnc(NC3CCN(C/C(C)=C/c4ccccc4)CC3)c2=O)cc1 [1-26]
31.6,501,2.51,,,,COCCN(C)C(=O)c1ccc(-n2ccnc(NC3CCN(C/C(C)=C/c4ccccc4)CC3)c2=O)cc1 [1-27]
79.4,2510,5.01,,,,C#CCN(C)C(=O)Cn1ccnc(NC2CCN(C/C(C)=C/c3ccccc3)CC2)c1=O [1-28]
,,,7.0,6.0,8.1,CC(=O)NCc1ccc(-n2ccnc(NC3CCN(C/C(C)=C/c4ccccc4)CC3)c2=O)cc1 [1-29]
158,1260,31.6,,,,CC(=O)NCc1ccc(Cn2ccnc(NC3CCN(C/C(C)=C/c4ccccc4)CC3)c2=O)cc1 [1-30]
200,794,50.1,,,,CCCC(=O)NCc1ccc(Cn2ccnc(NC3CCN(C/C(C)=C/c4ccccc4)CC3)c2=O)cc1 [1-31]
39.8,316,,,,,C/C(=C\c1ccccc1)CN1CCC(Nc2nccn(CCCNCc3ccccc3)c2=O)CC1 [1-46]
25.1,501,,,,,C/C(=C\c1ccccc1)CN1CCC(Nc2nccn(CCCNCc3ccccc3)c2=O)CC1 [1-47]
,2510,3.16,,,,C/C(=C\c1ccccc1)CN1CCC(Nc2nccn(CCN3CCCCC3)c2=O)CC1 [2-4]
,,25.1,,,,C/C(=C\c1ccccc1)CN1CCC(Nc2nccn(CCN3CCOCC3)c2=O)CC1 [2-40]
316,,39.8,,,,COCCn1ccnc(NC2CCN(C/C(C)=C/c3ccccc3)CC2)c1=O [3-5]
25.1,,5.01,,,,C/C(=C\c1ccccc1)CN1CCC(Nc2nccn(-c3ccccn3)c2=O)CC1 [6-9]
12.6,,3.16,,,,C/C(=C\c1ccccc1)CN1CCC(Nc2nccn(-c3ccccn3)c2=O)CC1 [6-10]
100,,31.6,,,,C/C(=C\c1ccccc1)CN1CCC(Nc2ncc[nH]c2=O)CC1 [7-1]
50.1,,12.6,,,,CC(=O)Cn1ccnc(NC2CCN(C/C(C)=C/c3ccccc3)CC2)c1=O [7-7]
2000,,251,,,,C/C(=C\c1ccccc1)CN1CCN(c2nccn(CCCN3CCCC3=O)c2=O)CC1 [9-1]
501,,63.1,,,,CN(C)CCCn1ccnc(NC2CCN(C/C=C/c3ccccc3)CC2)c1=O [16-2]

# Reference: US20090111801A1, “SUBSTITUTED PYRAZINONE DERIVATIVES FOR USE AS A MEDICINE” (Janssen Pharmaceutica N.V., priority 2006, published 2009)
